Assay results: patent US20260345619A1 (Principia Biopharma Inc., priority 2023, published 2026)

Assay: Loss of asthma control (LOAC) events, 12-week ICS/LABA withdrawal study
Type: in vivo, human
From the text: The general construct of this 12-week Loss of Asthma Control (LOAC) study consisted of a 4-week standardized ICS/LABA background therapy stabilization phase, a 4or 5-week background therapy withdrawal phase and a 3- or 4-week no background therapy phase, followed by a 4-week post IMP treatment safety follow-up period at the beginning of which, pre-screening asthma controller medications are restarted. Participants had access to short-acting β-agonist (SABA) reliever medication at all times during the protocol.
The primary endpoint was the proportion of patients with LOAC. The key secondary endpoint for the study was change in pre-bronchodilator FEV1 from baseline at EOT.
The primary endpoint was proportion of participants with LOAC during the 12-week treatment period.
Note that if the number of participants in some regions was too low, these regions may have been pooled with other regions. This strategy also applied to all the rest of the analyses where region was one of the covariates.
To assess the consistency in treatment effects across different subgroup levels, subgroup analyses were to be performed for the primary efficacy endpoint with respect to age group, gender, region, and other factors.
Secondary endpoints included pre-bronchodilator FEV1 change from baseline at EOT, ACQ-5 score change from baseline, and AQLQ score change from baseline. Other secondary and exploratory endpoints are described in Table 2.

[1] = 400 mg TID cohort, N = 64, mITT
[2] = 400 mg TID cohort, age <45 years, n = 25
[3] = 400 mg TID cohort, age ≥45 years, n = 39
[4] = 400 mg TID cohort, baseline BMI <25 kg/m^2, n = 12
[5] = 400 mg TID cohort, baseline BMI ≥25-<30 kg/m^2, n = 29
[6] = 400 mg TID cohort, baseline BMI ≥30 kg/m^2, n = 23
[7] = 400 mg TID cohort, baseline weight <60 kg, n = 2
[8] = 400 mg TID cohort, baseline weight ≥60-<90 kg, n = 41
[9] = 400 mg TID cohort, baseline weight ≥90 kg, n = 21
[10] = 400 mg TID cohort, female, n = 39
[11] = 400 mg TID cohort, male, n = 25
[12] = 400 mg TID, N=64, 12 weeks, mITT
[13] = 400 mg TID, 1 exacerbation within 2 years
[14] = 400 mg TID, 2 exacerbations within 2 years
[15] = 400 mg TID, FEV1 reversibility <12 %
[16] = 400 mg TID, FEV1 reversibility ≥12 %
[17] = 400 mg TID, age at onset <12 years
[18] = 400 mg TID, age at onset <18 years
[19] = 400 mg TID, age at onset ≥18-<40 years
[20] = 400 mg TID, age at onset ≥18 years
[21] = 400 mg TID, age at onset ≥40 years

With `CC(C)(C=C(C#N)C(=O)N1CCC[C@@H](n2nc(-c3ccc(Oc4ccccc4)cc3F)c3c(N)ncnc32)C1)N1CCN(C2COC2)CC1` (mixture of isomers) [rilzabrutinib, (R)-2-[3-[4-amino-3-(2-fluoro-4-phenoxy-phenyl)pyrazolo[3,4-d]pyrimidin-1-yl]piperidine-1-carbonyl]-4-methyl-4-[4-(oxetan-3-yl)piperazin-1-yl]pent-2-enenitrile] as the compound, how does the “Intervention discontinuation due to lack of efficacy or an AE related to asthma worsening, number” value [1] read?
Its value is 1.

And the “Intervention discontinuation due to lack of efficacy or an AE related to asthma worsening, percentage” value [1]?
Its value is “(1.6)”.

And the “Number of participants requiring hospitalization or emergency room visit” value [1]?
The value was 0.

And the “Number of participants with LOAC: Yes” value [1]?
The value was 12.

What about the “Number of participants with increase in ICS ≥4 times the last prescribed ICS dose (or ≥50% of the prescribed ICS dose at baseline if background therapy withdrawal completed)” value [1] of the same compound?
Its value is 0.

What about the “Number of participants with ≥6 additional reliever puffs of salbutamol/albuterol or levosalbutamol/levalbuterol in a 24 hour period (compared with baseline) on 2 consecutive days” value [1] of the same compound?
The value was 0.

And the “Number of participants with ≥30% reduction from baseline in AM PEF on 2 consecutive days” value [1]?
The value was 10.

And the “Participants with LOAC not triggered by use of rescue medication, number” value [1]?
Its value is 10.

And the “Participants with LOAC not triggered by use of rescue medication, percentage” value [1]?
The value was “(15.6)”.

What about the “Participants with LOAC triggered by use of rescue medication, number” value [1] of the same compound?
Its value is 1.

What about the “Participants with LOAC triggered by use of rescue medication, percentage” value [1] of the same compound?
The value was “(1.6)”.

What about the “Percentage of participants with LOAC: No” value [1] of the same compound?
The value was “(81.3)”.

What about the “Percentage of participants with LOAC: Yes” value [1] of the same compound?
Its value is “(18.8)”.

What about the “Percentage of participants with ≥30% reduction from baseline in AM PEF on 2 consecutive days” value [1] of the same compound?
The value was “(15.6)”.

And the “LOAC incidence, number of participants” value (400 mg TID cohort, Western Countries, n = 2)?
Its value is 0.

What about the “LOAC incidence, number of participants” value [2] of the same compound?
Its value is 2.

And the “LOAC incidence, percentage” value [2]?
The value was “(8.0)”.

What about the “LOAC OR vs. placebo” value (400 mg TID cohort, age <45 years, 95% CI (0.028, 0.725)) of the same compound?
Its value is 0.142.

What about the “LOAC RD vs. placebo” value (400 mg TID cohort, age <45 years, 95% CI (−0.505, −0.093)) of the same compound?
Its value is −0.299.

And the “LOAC incidence, number of participants” value [3]?
The value was 10.

And the “LOAC incidence, percentage” value [3]?
Its value is “(25.6)”.

And the “LOAC OR vs. placebo” value (400 mg TID cohort, age ≥45 years, 95% CI (0.408, 3.236))?
The value was 1.149.

And the “LOAC RD vs. placebo” value (400 mg TID cohort, age ≥45 years, 95% CI (−0.165, 0.216))?
Its value is 0.026.

What about the “LOAC incidence, number of participants” value [4] of the same compound?
Its value is 3.

What about the “LOAC incidence, percentage” value [4] of the same compound?
The value was “(25.0)”.

And the “LOAC OR vs. placebo” value (400 mg TID cohort, baseline BMI <25 kg/m^2, 95% CI (0.121, 2.801))?
The value was 0.583.

And the “LOAC RD vs. placebo” value (400 mg TID cohort, baseline BMI <25 kg/m^2, 95% CI (−0.431, 0.203))?
The value was −0.114.

And the “LOAC incidence, number of participants” value [5]?
Its value is 3.

What about the “LOAC incidence, percentage” value [5] of the same compound?
The value was “(10.3)”.

And the “LOAC OR vs. placebo” value (400 mg TID cohort, baseline BMI ≥25-<30 kg/m^2, 95% CI (0.064, 1.172))?
Its value is 0.274.

And the “LOAC RD vs. placebo” value (400 mg TID cohort, baseline BMI ≥25-<30 kg/m^2, 95% CI (−0.398, 0.012))?
Its value is −0.193.

What about the “LOAC incidence, number of participants” value [6] of the same compound?
The value was 6.

What about the “LOAC incidence, percentage” value [6] of the same compound?
The value was “(26.1)”.

What about the “LOAC OR vs. placebo” value (400 mg TID cohort, baseline BMI ≥30 kg/m^2, 95% CI (0.313, 5.604)) of the same compound?
Its value is 1.324.

And the “LOAC RD vs. placebo” value (400 mg TID cohort, baseline BMI ≥30 kg/m^2, 95% CI (−0.206, 0.307))?
Its value is 0.050.

What about the “LOAC incidence, number of participants” value [7] of the same compound?
The value was 1.

What about the “LOAC incidence, percentage” value [7] of the same compound?
The value was “(50.0)”.

What about the “LOAC OR vs. placebo” value (400 mg TID cohort, baseline weight <60 kg, 95% CI (0.140, 64.262)) of the same compound?
The value was 3.000.

And the “LOAC RD vs. placebo” value (400 mg TID cohort, baseline weight <60 kg, 95% CI (−0.485, 0.985))?
Its value is 0.250.

And the “LOAC incidence, number of participants” value [8]?
Its value is 8.

And the “LOAC incidence, percentage” value [8]?
The value was “(19.5)”.

And the “LOAC OR vs. placebo” value (400 mg TID cohort, baseline weight ≥60-<90 kg, 95% CI (0.182, 1.392))?
Its value is 0.503.

What about the “LOAC RD vs. placebo” value (400 mg TID cohort, baseline weight ≥60-<90 kg, 95% CI (−0.319, 0.059)) of the same compound?
Its value is −0.130.

And the “LOAC incidence, number of participants” value [9]?
The value was 3.

What about the “LOAC incidence, percentage” value [9] of the same compound?
The value was “(14.3)”.

What about the “LOAC OR vs. placebo” value (400 mg TID cohort, baseline weight ≥90 kg, 95% CI (0.095, 2.645)) of the same compound?
Its value is 0.500.

And the “LOAC RD vs. placebo” value (400 mg TID cohort, baseline weight ≥90 kg, 95% CI (−0.367, 0.153))?
Its value is −0.107.

And the “LOAC incidence, number of participants” value [10]?
The value was 8.

What about the “LOAC incidence, percentage” value [10] of the same compound?
The value was “(20.5)”.

What about the “LOAC OR vs. placebo” value (400 mg TID cohort, female, 95% CI (0.224, 1.828)) of the same compound?
The value was 0.640.

What about the “LOAC RD vs. placebo” value (400 mg TID cohort, female, 95% CI (−0.291, 0.123)) of the same compound?
The value was −0.084.

And the “LOAC incidence, number of participants” value [11]?
Its value is 4.

What about the “LOAC incidence, percentage” value [11] of the same compound?
The value was “(16.0)”.

And the “LOAC OR vs. placebo” value (400 mg TID cohort, male, 95% CI (0.091, 1.966))?
Its value is 0.423.

What about the “participants without LOAC, number” value [12] of the same compound?
Its value is 52.

What about the “participants without LOAC, percent” value [12] of the same compound?
The value was “(81.3)”.

What about the “participants with LOAC, number” value (400 mg TID, N=64, 12 weeks, mITT, placebo 20) of the same compound?
Its value is 12.

And the “participants with LOAC, percent” value (400 mg TID, N=64, 12 weeks, mITT, placebo […])?
Its value is 18.8%.

And the “RRR vs. placebo (%), LOAC” value (400 mg TID, mITT)?
The value was 34.7%.

What about the “RR vs. placebo, LOAC” value (400 mg TID, mITT, 95% CI 0.348, 1.226) of the same compound?
The value was 0.653.

And the “RD (risk difference) vs. placebo, LOAC” value (400 mg TID, mITT, 95% CI −0.238, 0.061)?
The value was −0.088.

And the OR vs. placebo [13]?
Its OR vs. placebo is 0.323.

What about the “RD vs. Placebo” value [13] of the same compound?
Its value is −0.194.

And the “LOAC, number” value [14]?
Its value is 7.

And the OR vs. placebo [14]?
Its OR vs. placebo is 1.896.

And the “RD vs. Placebo” value [14]?
Its value is 0.117.

What about the “LOAC, number” value (400 mg TID, >2 exacerbations within 2 years) of the same compound?
The value was 0.

What about the “LOAC, number” value [15] of the same compound?
Its value is 9.

And the OR vs. placebo [15]?
Its OR vs. placebo is 0.643.

And the “RD vs. Placebo” value [15]?
Its value is −0.082.

And the “LOAC, number” value [16]?
The value was 1.

What about the OR vs. placebo [16] of the same compound?
The OR vs. placebo was 0.417.

And the “RD vs. Placebo” value [16]?
The value was −0.090.

What about the “LOAC, number” value [17] of the same compound?
Its value is 2.

And the OR vs. placebo [17]?
The OR vs. placebo was 0.250.

What about the “RD vs. Placebo” value [17] of the same compound?
Its value is −0.257.

And the “LOAC, number” value [18]?
The value was 2.

And the OR vs. placebo [18]?
Its OR vs. placebo is 0.218.

And the “RD vs. Placebo” value [18]?
Its value is −0.245.

What about the “LOAC, number” value (400 mg TID, age at onset ≥12-<18 years) of the same compound?
Its value is 0.

And the “LOAC, number” value [19]?
Its value is 6.

And the OR vs. placebo [19]?
Its OR vs. placebo is 0.514.

What about the “RD vs. Placebo” value [19] of the same compound?
The value was −0.135.

And the “LOAC, number” value [20]?
The value was 10.

What about the OR vs. placebo [20] of the same compound?
Its OR vs. placebo is 0.769.

And the “RD vs. Placebo” value [20]?
Its value is −0.049.

What about the “LOAC, number” value [21] of the same compound?
The value was 4.

What about the OR vs. placebo [21] of the same compound?
Its OR vs. placebo is 1.619.

What about the “RD vs. Placebo” value [21] of the same compound?
Its value is 0.072.

And the “LOAC, number” value (400 mg TID, all others than low EOS and low FeNO)?
The value was 8.
